Key:
HIV-1 RT mutant V111A = experiment: single round infection assay, V111A; type: cell-based; details: for fold-change of IC50 of the mutant relative to WT: V111A vs WT; for IC50: Human immunodeficiency virus 1, V111A, ± SD, n=4
Procedure: (§1) The human osteosarcoma cell line, HOS, was obtained from Dr. Richard Schwartz (Michigan State University, East Lansing, MI) and grown in Dulbecco’s modified Eagle’s medium (Invitrogen, Carlsbad, CA) supplemented with 5 % (v/v) fetal bovine serum, 5 % newborn calf serum, and penicillin (50 units/ml) plus streptomycin (50 µg/ml; Quality Biological, Gaithersburg, MD). Virion production and single-round infectivity assays were used to determine antiviral activity (IC50 values) of the compounds as previously described.
(§2) pNLNgoMIVR-ΔEnv.LUC has been described previously. The RT open reading frame was removed from pNLNgoMIVR-ΔEnv.LUC (digestion with SpeI and SalI) and inserted between the SpeI and SalI sites of pBluescript II KS+. Using that construct as the wild-type template, we prepared the following HIV-1 RT mutants using the QuikChange II XL (Stratagene, La Jolla, CA) site-directed mutagenesis protocol kit: L100I, K103N, Y181C, Y188L, H221Y, K103N/Y181C, G190A, G190S, M230L, P236L, L100I/K103N, K103N/P225H, V106A/G190A/F227L, V106A, L234I, V106A/F227L, V106A/L234I, V106A/F227L/L234I, E40K, D67E, K101E, V111A, E138K, M184I, M184V, K101E/M184I, K101E/M184V, E138K/M184I, E138K/M184V, K101P, Y181I, and K101P/V179I. The following sense oligonucleotides were used with matching cognate antisense oligonucleotides (not shown) (Integrated DNA Technologies, Coralville, IA) in the mutagenesis: L100I, 5′-[…]-3′; L100I 2-103, 5′-[…]-3′; K103N, 5′-[…]-3′; Y181C, 5′-[…]-3′; Y188L, 5′-[…]-3′; H221Y, 5′-[…]-3′; G190A, 5′-[…]-3′; G190S, 5′-[…]-3′; P225H, 5′-[…]-3′; F227, 5′-[…]-3′; M230L, 5′-[…]-3′; P236L, 5′-[…]-3′; V106A, 5′-[…]-3′; L234I, 5′-[…]-3′; E40K, 5′-[…]-3′; D67E, 5′-[…]-3′; K101E, 5′-[…]-3′; V111A, 5′-[…]-3′; E138K, 5′-[…]-3′; M184I, 5′-[…]-3′; M184V, 5′-[…]-3′; K101P, 5′-[…]-3′; Y181I, 5′-[…]-3′; K101P/V179I, 5′-[…]-3′. The double mutants K103N/Y181C, K103N/P225H, and L100I/K103N were made using the previously generated K103N mutant and the appropriate oligonucleotides to add the second mutation, Y181C, P225, and L100I respectively. The double mutants V106A/F227L and V106A/L234I were prepared using the previously generated V106A mutant and the appropriate oligonucleotides to add the second mutation, F227L and L234I, respectively. The double mutants K101E/M184I and K101E/M184V were constructed using the previously generated K101E mutant and the appropriate oligonucleotides to add the second mutation, M184I and M184V, respectively. The double mutants E138K/M184I and E138K/M184V were constructed using the previously generated E138K mutant and the appropriate oligonucleotides for the second mutation, M184I and M184V, respectively. The triple mutant V106A/F227L/L234I was made using the previously generated V106A/F227L double mutant and the appropriate oligonucleotides for the third mutation, L234I. The triple mutant V106A/G190A/F227L was constructed in a series of steps using the previously generated V106A mutant and the appropriate oligonucleotides for the second mutation, G190A, to generate the double mutant V106A/G190A, and then the triple mutant was made using double mutant V106A/G190A and oligonucleotides for the third mutation, F227L. […]
(§3) 10.1186/s12977-016-0244-2 The IC50 values (nM) of RPV and the RPV analogs were determined against the NNRTI resistant mutants were measured by using a single round infection assay, n = 4. The concentrations (nM) are measured by reductions in luciferase reporter activity followed by the standard deviations. […]

[1] = system: HIV-1 RT mutant K103N/Y181C; set-up: method as in PMID 23217210; details: previous study; cited from earlier work
HIV-1 RT mutant Y188L = system: HIV-1 RT mutant Y188L; set-up: method as in PMID 23217210; details: previous study; cited from earlier work
HIV-1 RT mutant M184I = experiment: single round infection assay, M184I; type: cell-based; details: for IC50: Human immunodeficiency virus 1, M184I, ± SD, n=4
Procedure: as §1
as §2, with “respectively.” for “respectively. The double mutants E138K/M184I and E138K/M184V were constructed using the previously generated E138K mutant and the appropriate oligonucleotides for the second mutation, M184I and M184V, respectively. The triple mutant V106A/F227L/L234I was made using the previously generated V106A/F227L double mutant and the appropriate oligonucleotides for the third mutation, L234I. The triple mutant V106A/G190A/F227L was constructed in a series of steps using the previously generated V106A mutant and the appropriate oligonucleotides for the second mutation, G190A, to generate the double mutant V106A/G190A, and then the triple mutant was made using double mutant V106A/G190A and oligonucleotides for the third mutation, F227L.”
as §3

HIV-1 RT mutant M184V = experiment: single round infection assay, M184V; type: cell-based; details: for IC50: Human immunodeficiency virus 1, M184V, ± SD, n=4; for fold-change of IC50 of the mutant relative to WT: M184V vs WT
Procedure: as §1, §2, §3

HIV-1 RT mutant E138K = system: HIV-1 RT mutant E138K; set-up: method as in PMID 23217210; details: previous study; cited from earlier work
[2] = system: HIV-1 RT mutant V106A/L234I; experiment: single round infection assay, V106A/L234I; type: cell-based; details: V106A/L234I vs WT
Procedure: as §1
pNLNgoMIVR-ΔEnv.LUC has been described previously. The RT open reading frame was removed from pNLNgoMIVR-ΔEnv.LUC (digestion with SpeI and SalI) and inserted between the SpeI and SalI sites of pBluescript II KS+. Using that construct as the wild-type template, we prepared the following HIV-1 RT mutants using the QuikChange II XL (Stratagene, La Jolla, CA) site-directed mutagenesis protocol kit: L100I, K103N, Y181C, Y188L, H221Y, K103N/Y181C, G190A, G190S, M230L, P236L, L100I/K103N, K103N/P225H, V106A/G190A/F227L, V106A, L234I, V106A/F227L, V106A/L234I, V106A/F227L/L234I, E40K, D67E, K101E, V111A, E138K, M184I, M184V, K101E/M184I, K101E/M184V, E138K/M184I, E138K/M184V, K101P, Y181I, and K101P/V179I. […]
as §3

## Cc1cc(/C=C/C#N)cc(C)c1Nc1ccnc(Nc2ccc(C#N)cc2)n1 [RPV, rilpivirine]
HIV-1 RT mutant V111A
  fold-change of IC50 of the mutant relative to WT: < 2
[1]
  IC50: < 5 nM

## Cc1cc(/C=C/C#N)cc(C)c1Nc1nc(Nc2ccc(C#N)cc2)ncc1[N+](=O)[O-] [compound 6]
HIV-1 RT mutant Y188L
  IC50: < 10 nM

## Cc1cc(/C=C/C#N)cc(C)c1Nc1nc(Nc2ccc(C#N)cc2)ncc1N [compound 7]
HIV-1 RT mutant Y188L
  IC50: < 10 nM
[1]
  IC50: < 5 nM

## COc1ccc(Cn2cnc3c(Nc4ccc(C#N)cc4)nc(Nc4c(C)cc(/C=C/C#N)cc4C)nc32)cc1 [compound 12]
HIV-1 RT mutant V111A
  IC50: 0.76 ± 0.17 nM
  fold-change of IC50 of the mutant relative to WT: < 2
HIV-1 RT mutant M184I
  IC50: 0.69 ± 0.2 nM
HIV-1 RT mutant M184V
  IC50: 1.6 ± 0.42 nM
  fold-change of IC50 of the mutant relative to WT: 2
HIV-1 RT mutant E138K
  IC50: 15 nM

## Cc1cc(/C=C/C#N)cc(C)c1Nc1nc(Nc2ccc(C#N)cc2)c2nc[nH]c2n1 [compound 13]
HIV-1 RT mutant Y188L
  IC50: < 10 nM

## CC(=O)c1ccc(Nc2nc(Nc3c(C)cc(/C=C/C#N)cc3C)nc3[nH]cnc23)cc1 [compound 14]
[2]
  fold-change of IC50 of the mutant relative to WT: 3

## COc1ccc(Nc2nc(Nc3c(C)cc(/C=C/C#N)cc3C)nc3[nH]cnc23)cc1 [compound 16]
HIV-1 RT mutant M184I; M184I vs WT
  fold-change of IC50 of the mutant relative to WT: < 2
HIV-1 RT mutant M184V
  fold-change of IC50 of the mutant relative to WT: < 2

## Cc1cc(/C=C/C#N)cc(C)c1Nc1nc(Nc2ccc(F)cc2)c2nc[nH]c2n1 [compound 17]
HIV-1 RT mutant V111A
  IC50: 0.5 ± 0.17 nM
HIV-1 RT mutant M184I
  IC50: 1.7 ± 0.3 nM
HIV-1 RT mutant M184V
  IC50: 1.6 ± 0.26 nM

## Cc1cc(/C=C/C#N)cc(C)c1Nc1nc(Nc2ccc3scnc3c2)c2nc[nH]c2n1 [compound 21]
[2]
  fold-change of IC50 of the mutant relative to WT: 2
HIV-1 RT mutant Y188L
  IC50: < 10 nM

## Cc1cc(/C=C/C#N)cc(C)c1Nc1ncc2ncn(-c3ccc(C#N)cc3)c2n1 [compound 26]
[2]
  fold-change of IC50 of the mutant relative to WT: 5
HIV-1 RT mutant V111A
  IC50: 1.5 ± 0.8 nM
HIV-1 RT mutant M184I
  IC50: 5.6 ± 2.2 nM
HIV-1 RT mutant M184V
  IC50: 4.2 ± 0.99 nM

## Cc1cc(/C=C/C#N)cc(C)c1-n1cnc2cnc(Nc3ccc(C#N)cc3)nc21 [compound 27]
HIV-1 RT mutant Y188L
  IC50: < 10 nM

Source: PMC4754833, “Rilpivirine analogs potently inhibit drug-resistant HIV-1 mutants” (Retrovirology, 2016)
